The values below come from patent US10329309B2, “3-(3H-imidazo[4,5-B]pyridin-2-yl)-1H-pyrazolo[4,3-B]pyridines and therapeutic uses thereof” (Samumed, LLC, priority 2015, dated 2019).

Assay type in all cases: cell-based
In one test the test system is SW480 colon cancer cells. Nature of the test: Cell viability assay (CellTiter-Blue), four days. The following applies: Homo sapiens, 96 h, CellTiter-Blue cell viability. A digest of the protocol: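 Resazurin reduction (Ex 560/Em 590 nm, ~3 h reagent incubation) served as the viability read-out after SW480 cells were treated for four days at 37 °C. Doses ran from 10 μM down to 0.0045 μM in eight 1:3 steps. Curves fitted non-linearly for EC50, else % inhibition at 10 μM reported.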

The subject of test [1] is primary human mesenchymal stem cells (hMSCs). Nature of the test: Induction of chondrogenesis in primary human mesenchymal stem cells (nodule imaging, Rhodamine B/Nile Red). The following applies: hMSC chondrogenesis; for Emax: TGF-β3 as positive control, read-out: Max. Activity as % TGF-β3 activity; for EC50: concentration required to induce 50% levels of chondrogenesis vs TGF-β3, read-out: Conc (nM) of 50% TGF-β3 activity. A digest of the protocol: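 hMSCs (passage 3–6) in incomplete chondrogenic induction medium were dosed at 2700–10 nM (96-well, 6-point) or 5000–2.2 nM (384-well, 8-point), 0.03% DMSO final, for 6 days at 37° C. Fixed nodules stained with Rhodamine B/Nile Red were imaged; nodule area normalized to DMSO wells gave EC50, maximum activity and dose at maximum, with TGF-β3 (10 ng/mL) as positive control.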

The test system of test [2] is Wnt activity (Sp5-Luc reporter, SW480 colon carcinoma cells). Nature of the test: Screening assay for Wnt activity: Sp5-Luc reporter gene assay in SW480 cells. The following applies: Homo sapiens, overnight incubation, 10-point dose-response from 10 μM. In outline:
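Luminescence (BrightGlo) read after overnight 37 °C exposure of Sp5-Luc SW480 reporter cells, 4,000/well in 1% FBS, to compound dosed 1:3 over 10 points from 10 μM with 0.1% DMSO. Values normalized to DMSO-only cells, fitted with variable-slope four-parameter model; where EC50 exceeds 10 μM, % inhibition at 10 μM reported.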

Structures are written as SMILES. pEC50: −log10 of the molar value.

The term pEC50 denotes −log10 of the EC50, conventionally taken in molar units. A high value points to a low EC50. Take `CN(C)Cc1cncc(-c2ccc3[nH]nc(-c4nc5c(-c6cccc(F)c6)ccnc5[nH]4)c3n2)c1` [Compound 13, 1-(5-(3-(7-(3-fluorophenyl)-3H-imidazo[4,5-b]pyridin-2-yl)-1H-pyrazolo [4,3-b]pyridin-5-yl)pyridin-3-yl)-N,N-dimethylmethanamine]: the values for the negative logarithm of the EC50 (pEC50) (with SW480 colon cancer cells; in test [2]) were 5.95 and 5.54, respectively. The Emax in test [1] stood at 29%.
On the same counts, the results for `NC1CN(c2cncc(-c3ccc4[nH]nc(-c5nc6c(-c7cccc(F)c7)ccnc6[nH]5)c4n3)n2)C1` [Compound 510, 1-(6-(3-(7-(3-fluorophenyl)-3H-imidazo[4,5-b]pyridin-2-yl)-1H-pyrazolo[4,3-b]pyridin-5-yl)pyrazin-2-yl)azetidin-3-amine] are 5.80, 5.43 and 46%.
Take `CCCC(=O)Nc1cncc(-c2ccc3[nH]nc(-c4nc5c(-c6ccsc6)ccnc5[nH]4)c3n2)c1` [Compound 297, N-(5-(3-(7-(thiophen-3-yl)-3H-imidazo[4,5-b]pyridin-2-yl)-1H-pyrazolo[4,3-b]pyridin-5-yl)pyridin-3-yl)butyramide]: the results for the pEC50 (in the test with SW480 colon cancer cells; in test [2]) were 5.58 and 6.09, respectively. Also, the Emax in test [1] amounted to 40%.
For `Cc1ccc(-c2ccnc3[nH]c(-c4n[nH]c5ccc(-c6cncc(NC(=O)C(C)C)c6)nc45)nc23)s1` [Compound 401, N-(5-(3-(7-(5-methylthiophen-2-yl)-3H-imidazo[4,5-b]pyridin-2-yl)-1H-pyrazolo[4,3-b]pyridin-5-yl)pyridin-3-yl)isobutyramide], the negative logarithm of the EC50 (pEC50) with SW480 colon cancer cells was 6.57. In addition, in test [1], the Emax was found to be 66% and the EC50 was determined as 1670 nM. The negative-log EC50 (pEC50) in test [2] was 6.25.
On the same counts, the results for `O=C(Nc1cncc(-c2ccc3[nH]nc(-c4nc5c(-c6ccc(F)cc6)ccnc5[nH]4)c3n2)c1)C1CCC1` [Compound 49, N-(5-(3-(7-(4-fluorophenyl)-3H-imidazo[4,5-b]pyridin-2-yl)-1H-pyrazolo [4,3-b]pyridin-5-yl)pyridin-3-yl)cyclobutanecarboxamide] are 6.26, 69%, 30 nM and 6.04.
For `FC1(F)CCN(Cc2cncc(-c3ccc4[nH]nc(-c5nc6c(-c7ccsc7)ccnc6[nH]5)c4n3)c2)C1` [Compound 306, 5-(5-((3,3-difluoropyrrolidin-1-yl)methyl)pyridin-3-yl)-3-(7-(thiophen-3-yl)-3H-imidazo[4,5-b]pyridin-2-yl)-1H-pyrazolo[4,3-b]pyridine], the negative logarithm of the EC50 (pEC50) in the test with SW480 colon cancer cells was 6.24; in test [2], 6.27. Besides, the Emax in test [1] came out at 77%. For the same compound, the EC50 in test [1] was found to be 30 nM.
In the case of `Fc1cccc(-c2ccnc3[nH]c(-c4n[nH]c5ccc(C6=CCNCC6)nc45)nc23)c1` [Compound 506, 3-(7-(3-fluorophenyl)-3H-imidazo[4,5-b]pyridin-2-yl)-5-(1,2,3,6-tetrahydropyridin-4-yl)-1H-pyrazolo[4,3-b]pyridine], the pEC50 is 5.55 in the test with SW480 colon cancer cells and less than 5.00 in test [2]. In addition, the Emax in test [1] came to 47%.
